Where a name gives a salt, the structure may show the parent alone.
How the values were obtained:
[1] = system: p53-dependent transcription; test: p53-dependent transcription in T22 RGC-ΔFos-lacZ cells (primary screen, beta-galactosidase/CPRG); assay type: cell-based; settings: for Bioactivity (relative to JJ91): p53-dependent transcription in T22 RGC-ΔFos-lacZ cells, JJ91 activity taken as 100%
[2] = system: BL2 Burkitt lymphoma cells; test: Survival of BL2 Burkitt lymphoma cells; assay type: cell-based; settings: 1 μM to 10 μM in 70% cyclodextrin, 2 hours exposure daily for six days
Procedure: At this time, the number of live cells were counted. After this short exposure, cells were washed to remove the compound. This treatment was repeated daily for six days. Experiments were performed in triplicate and standard deviations indicated.

SKNSH-DDp53 cells = test: FACS analysis of neuroblastoma cells with inactivated p53; assay type: cell-based; settings: 10 μM, 48 hours, SKNSH cells with inactive p53
Procedure: Neuroblastoma cell lines SKNSH-CMVNeo (with functional p53) and SKNSH-DDp53 (inactivated p53) were used and are described by Smart P, Lane E B, Lane D P, Midgley C, Vojtesek B, Lain S. in Oncogene. 1999 Dec. 2; 18(51):7378-86.
• Seed 50,000 cells per well of a 6 well plate in DMEM-10% FCS Day 2 • Add drugs to cells Day 4 • Add bromodeoxyuridine (BrdU) to 30 μM and incubate cells for 20 minutes. • Remove media from cells and transfer to a 13 ml Falcon tube. Rinse cells with PBS and transfer this also. Trypsinise cells and transfer to tube then finally rinse with PBS again. Once all transferred to tube, pellet cells at 1500 rpm for 5 minutes. • Resuspend cells in 1 ml of PBS and add drop wise to 3 ml of ethanol while vortexing. Incubate for a minimum of 1-2 hours at 4° C. (no maximum). […] Keep on ice in the dark until analysed on the FACScan. • Measure DNA content (propidium iodide fluorescence) and DNA synthesis (BrdU incorporation) by FACScan. […]
Cells were analysed by FACS analysis.

p53 = test: Western blotting of MCF-7 cell extracts; assay type: cell-based; settings: MCF-7 cells, 10 μM
Procedure: • Seed 50,000 cells per well of a 6 well plate in DMEM-10% FCS Day 2 • Add drugs to cells Day 4 • Add bromodeoxyuridine (BrdU) to 30 μM and incubate cells for 20 minutes. • Remove media from cells and transfer to a 13 ml Falcon tube. Rinse cells with PBS and transfer this also. Trypsinise cells and transfer to tube then finally rinse with PBS again. Once all transferred to tube, pellet cells at 1500 rpm for 5 minutes. • Resuspend cells in 1 ml of PBS and add drop wise to 3 ml of ethanol while vortexing. Incubate for a minimum of 1-2 hours at 4° C. (no maximum). Day 5 • Pellet by centrifugation at 2,500 rpm for 5 minutes then pour off supernatant. • Prepare 2 ml fresh pepsin solution per tube at 1 mg/ml in 30 mM HCl (pH 1.5) and prewarm to 37° C. • Add 2 ml prewarmed pepsin solution to each tube and mix for 30 mins at 37° C. • Pellet by centrifugation at 2500 rpm for 5 minutes then pour off supernatant (pellets will be clear) • Add 1 ml 2M HCl for 15-20 mins at room temperature (stock bottle is 11.6 M). • Timing is critical—incubating for long periods results in broad DNA peaks. • Top up with PBS then pellet as before. • Wash again with PBS then once in antibody buffer, pelleting cells each time. • Antibody buffer: PBS, 0.5% BSA, 0.5% Tween-20 • Resuspend pellet into 200 μl of Becton Dickinson anti-BrdU antibody diluted 1:50 in antibody buffer. Incubate for 1 h at room temperature. • Wash in PBS and pellet cells. • Resuspend pellet in 200 μl Sigma FITC antibody (#3008) diluted 1:64 in antibody buffer. Incubate for 30 min at room temperature in the dark to prevent the antibody fading. • Wash in PBS and pellet cells. • Resuspend final pellet in 500 μl PBS containing 25 μg/ml propidium iodide counter stain. Keep on ice in the dark until analysed on the FACScan. • Measure DNA content (propidium iodide fluorescence) and DNA synthesis (BrdU incorporation) by FACScan. 3. […]
Levels of the p53 downstream target p21 are increased Actin was analysed as a loading control.

[3] = Blood levels after administration to mice (LC-MS/MS); assay type: in vivo; settings: 5 mg/kg, intraperitoneal injection
Procedure: Blood levels were determined at the times shown by LC-MS/MS above and the values shown are the means±SD for three determinations.

[4] = system: BL2 Burkitt lymphoma xenograft tumours; test: BL2 Burkitt lymphoma xenograft tumours in SCID mice; assay type: in vivo; settings: 92 mg/kg daily by intraperitoneal injection, measured to day 11
Procedure: Referring to FIG. 7, BL2 Burkitt lymphoma xenograft tumours in SCID mice were established for 7 days until tumours were palpable. […] Tumour sizes were measured on the day of injection (day 1) and on days 4, 8 and 11 post-injection.

SirT1 = SirT1 (Homo sapiens (Human), UniProt Q96EB6); test: In vitro deacetylation assay (Fluor de Lys SirT1 Fluorescent Activity Assay); assay type: biochemical; settings: FdL substrate 7 μM, NAD+ 1 mM, 37° C., 1 hour; read-out: SIRT1 inhibition IC50
Chain of SirT1 (Q96EB6 whole entry): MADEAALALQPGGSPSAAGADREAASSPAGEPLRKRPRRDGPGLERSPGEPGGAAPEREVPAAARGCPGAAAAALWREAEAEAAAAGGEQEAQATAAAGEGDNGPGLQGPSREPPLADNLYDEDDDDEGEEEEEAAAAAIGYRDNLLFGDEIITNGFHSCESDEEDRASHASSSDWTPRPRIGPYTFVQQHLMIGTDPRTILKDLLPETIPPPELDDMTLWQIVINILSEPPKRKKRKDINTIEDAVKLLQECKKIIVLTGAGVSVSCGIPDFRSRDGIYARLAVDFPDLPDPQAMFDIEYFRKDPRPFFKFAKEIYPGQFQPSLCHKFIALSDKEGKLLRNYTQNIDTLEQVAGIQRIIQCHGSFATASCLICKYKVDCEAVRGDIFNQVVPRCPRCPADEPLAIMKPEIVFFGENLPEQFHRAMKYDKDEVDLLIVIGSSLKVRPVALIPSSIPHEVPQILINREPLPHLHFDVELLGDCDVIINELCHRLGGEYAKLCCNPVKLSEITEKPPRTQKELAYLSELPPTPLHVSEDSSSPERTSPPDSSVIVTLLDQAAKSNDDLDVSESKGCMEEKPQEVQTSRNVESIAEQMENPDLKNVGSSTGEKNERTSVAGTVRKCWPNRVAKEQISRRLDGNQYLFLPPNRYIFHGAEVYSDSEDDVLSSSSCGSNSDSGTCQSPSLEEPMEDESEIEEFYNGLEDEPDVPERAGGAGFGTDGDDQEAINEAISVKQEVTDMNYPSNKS

| IC50 (SirT1) [µM] | SMILES | Bioactivity (relative to JJ91) [1] | other results |
| --- | --- | --- | --- |
| – | CC(C)(C)c1ccc(C(=O)NC(=S)Nc2ccc(N)cc2)cc1 [JH129, 1-(4-Amino-phenyl)-3-(4-tert-butyl-benzoyl)-thiourea] | Active (<) | – |
| – | CC(C)(C)c1ccc(C(=O)NC(=S)Nc2ccc(NC(=O)CCCCBr)cc2)cc1 [JH140, 5-bromo-pentanoic acid {4-[3-(4-tert-butyl-benzoyl)-thioureido]-phenyl}-amide] | Active (87.5%) | – |
| – | CC(C)(C)OC(=O)Nc1ccc(NC(=S)NC(=O)c2ccc(C(C)(C)C)cc2)cc1 [Compound 21, {4-[3-(4-tert-Butyl-benzoyl)-thioureido]-phenyl}-carbamic acid tert-butyl ester] | – | activity in the p53 activation assay (in words) [1]: very good activity |
| – | CC(C)(C)c1ccc(C(=O)NC(=S)Nc2ccc(NC(=O)c3ccccc3)cc2)cc1 [JH151] | Active (106.1%) | – |
| – | CC(C)(C)c1ccc(C(=O)NC(=S)Nc2ccc(NC(=O)CCCCN3CCOCC3)cc2)cc1 [JH156] | Active (75.4%) | – |
| – | CC(=O)Nc1ccc(NC(=S)NC(=O)c2ccc(C(C)(C)C)cc2)cc1 [JJ91, N-{4-[3-(4-tert-Butyl-benzoyl)-thioureido]-phenyl}-acetamide] | – | BL2 cell survival [2]: largely reduced; p53 transcription factor function ([1]; T22 RGC-ΔFos-lacZ cells treated 16 hours): activates p53's transcription factor function; effects on DNA synthesis and cell death (SKNSH-DDp53 cells): not observed; levels of the p53 downstream target p21 (p53): increased; p53 levels (p53): rapidly increased; levels of p53 phosphoserine-15 (p53; compared with mitomycin C 10 μM): not as high as those observed with the genotoxic gent mitomycin C; concentrations in blood [3]: reach micromolar concentrations in blood; weight or behavioural changes [3]: do not cause significant weight or behavioural changes; half-life ([3]; mouse, ip, blood): ~1.3 h; growth of BL2 xenograft tumours [4]: reduces growth of BL2 xenograft tumours |
| – | CC(C)C(=O)Nc1ccc(NC(=S)NC(=O)c2ccc(C(C)(C)C)cc2)cc1 [Compound 7322366] | Active (81.2%) | – |
| > 60 | CN(C)CCOCCOCCOCCOCCOCC(=O)Nc1ccc(NC(=S)NC(=O)c2ccc(C(C)(C)C)cc2)cc1 [Compound 8, N-{4-[3-(4-tert-Butyl-benzoyl)-thioureido]-phenyl}-2-[2-(2-{2-[2-(2-dimethylamino-ethoxy)-ethoxy]-ethoxy}-ethoxy)-ethoxy]-acetamide hydrochloride] | – | – |
| 29 | CN(C)CCCCC(=O)Nc1ccc(NC(=O)NC(=O)c2ccc(C(C)(C)C)cc2)cc1 [Compound 24, 5-Dimethylamino-pentanoic acid {4-[3-(4-tert-butyl-benzoyl)-ureido]-phenyl}-amide hydrochloride] | – | – |
| – | CC(C)(C)c1ccc(C(=O)NC(=S)Nc2ccc(NC(=O)CCCCN3CCOCC3)cc2)cc1.Cl [JH156HCl] | Active (59.6%) | – |
| 25 ± 10 | CN(C)CCCCCCCC(=O)Nc1ccc(NC(=S)NC(=O)c2ccc(C(C)(C)C)cc2)cc1 [Compound 7, 8-Dimethylamino-octanoic acid {4-[3-(4-tert-butyl-benzoyl)-thioureido]-phenyl}-amide hydrochloride] | – | – |
| 32 ± 9 | CN(C)CCCC(=O)Nc1ccc(NC(=S)NC(=O)c2ccc(C(C)(C)C)cc2)cc1 [Compound 5, N-{4-[3-(4-tert-Butyl-benzoyl)-thioureido]-phenyl}-4-dimethylamino-butyramide hydrochloride] | – | – |
| 16 ± 3 | CN(C)CCCCCC(=O)Nc1ccc(NC(=S)NC(=O)c2ccc(C(C)(C)C)cc2)cc1 [Compound 6, 6-Dimethylamino-hexanoic acid {4-[3-(4-tert-butyl-benzoyl)-thioureido]-phenyl}-amide hydrochloride] | – | – |

From patent US8501991B2, “P53 activating compounds” (University Court of the University of Dundee, priority 2006, dated 2013)
